The record followed here is US10040783B2 (Emory University, priority 2011, dated 2018).

Data set [1] deals with EP4 receptor (Homo sapiens, UniProt P35408). Description: Schild regression analysis for EP4 receptor. It counts as cell-based. As to conditions: for Kb: read-out: KB (μM) EP4, from Schild regression analysis. The text has this:
(§1) Information on the modality of antagonism can be obtained by performing Schild regression analysis characterized by: log (dr−1)=log XB−log KB. In the equation, dose ratio (dr)=fold shift in EC50, XB=[antagonist], KB=equilibrium dissociation constant for the antagonist-receptor complex. […] Thus, a lower KB value indicates a higher inhibitory potency.

For data set [2], the system named is rat primary hippocampal cultures. Description: NMDA-induced LDH release (excitotoxicity) in primary hippocampal cultures. It is filed as cell-based. To be noted: 10 μM compound, NMDA 30 μM plus glycine 10 μM overnight; for activity at 10 µM: Rattus norvegicus, read-out: NMDA-induced LDH release, % of control. The text has this: Excitotoxicity caused by NMDA receptor activation is recognized to induce neuronal apoptosis both in vitro and in vivo in cortical neurons. NMDA receptor activation can, via COX-2, cause prostaglandin production, including PGE2. Activation of the EP2 receptor by PGE2 in microglia can promote neuroinflammation in several models of neurodegenerative diseases. The effect of EP2 antagonist compounds were examined on NMDA-induced excitotoxicity. Rat primary hippocampal cultures (DIV13-15) were preincubated with vehicle or increasing concentrations of test compound for 15-20 min, followed by treatment with NMDA (30 μM) plus glycine (10 μM) overnight in continued presence of the test compound. Lactate dehydrogenase (LDH) release was used as the measure of neuronal injury.

Data set [3] in a line: in vitro. To be noted: rat, C6G cells.
Data set [4] concerns the target EP2 receptor (Homo sapiens, UniProt P43116). In words: Schild regression of PGE2-induced EP2 activation in C6G-EP2 cells. It counts as cell-based. As to conditions: for Kb: read-out: KB (nM) EP2, from Schild regression analysis. Set-up: expressed in transfected cells; host or cells: C6G-EP2 cells. Here is the method:
as §1
To perform the Schild regression, C6G-EP2 cells were incubated first with vehicle, 0.01, 0.1 or 1 μM of test compound for 5 minutes, then with increasing concentrations of PGE2 to activate the EP2 receptor.

Data set [5] deals with C6G cells. Description: CellTiter-Glo luminescent cell viability assay (cytotoxicity). On the technique in general: Cellular ATP, detected with luciferase, serves as a proxy for viable cell number.

Chain of EP2 receptor (P43116 whole entry): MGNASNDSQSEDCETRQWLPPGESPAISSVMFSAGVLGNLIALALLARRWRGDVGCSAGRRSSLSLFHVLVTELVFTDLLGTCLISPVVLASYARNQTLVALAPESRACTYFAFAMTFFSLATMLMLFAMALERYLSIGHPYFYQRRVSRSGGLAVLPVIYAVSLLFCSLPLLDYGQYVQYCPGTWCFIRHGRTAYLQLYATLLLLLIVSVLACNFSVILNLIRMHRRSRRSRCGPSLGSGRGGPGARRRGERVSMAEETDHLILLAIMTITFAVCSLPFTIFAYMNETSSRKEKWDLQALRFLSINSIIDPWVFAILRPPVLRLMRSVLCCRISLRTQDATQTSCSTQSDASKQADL
Chain of EP4 receptor (P35408 whole entry): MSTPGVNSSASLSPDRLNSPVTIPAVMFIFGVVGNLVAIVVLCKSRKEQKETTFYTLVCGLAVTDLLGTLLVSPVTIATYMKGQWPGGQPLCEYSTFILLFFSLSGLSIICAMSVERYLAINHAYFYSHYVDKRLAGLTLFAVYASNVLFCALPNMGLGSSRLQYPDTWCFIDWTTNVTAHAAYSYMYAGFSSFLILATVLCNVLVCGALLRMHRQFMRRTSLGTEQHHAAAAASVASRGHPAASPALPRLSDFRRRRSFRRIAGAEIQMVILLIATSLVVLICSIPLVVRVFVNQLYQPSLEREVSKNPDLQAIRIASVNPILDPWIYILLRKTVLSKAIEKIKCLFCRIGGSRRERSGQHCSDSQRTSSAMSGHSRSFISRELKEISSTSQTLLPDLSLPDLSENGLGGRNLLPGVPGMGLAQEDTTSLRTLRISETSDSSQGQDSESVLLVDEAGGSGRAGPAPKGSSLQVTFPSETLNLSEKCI

In the case of `COc1cc(C=CC(=O)NCCn2c(C)cc3cc(F)ccc32)cc(OC)c1OC` [1f, N-(2-(5-fluoro-2-methyl-1H-indol-1-yl)ethyl)-3-(3,4,5-trimethoxyphenyl)acrylamide], the “Selective index, KB EP4/KB EP2” value in data set [1] was 2,600. Also, the Kb in data set [1] was found to be 5.4 µM; in data set [4] (C6G-EP2 cells, PGE2 as agonist), 2.1 nM. Also, the activity at 10 µM in data set [2] came to 38.5%. Further, the CC50 at 48 h in data set [3] was 155 µM. The “Therapeutic index (in vitro), CC50/KB for EP2” value (from here on “Therapeutic index (in vitro)”) in data set [5] is recorded as 73,800.

With `COc1ccc(C=CC(=O)NCCn2c(C)cc3ccccc32)cc1` [1m, 3-(4-methoxyphenyl)-N-(2-(2-methyl-1H-indol-1-yl)ethyl)acrylamide], in data set [1], the “Selective index, KB EP4/KB EP2” value stood at 484 and the Kb came out at 8 µM. Moreover, in data set [3], the CC50 at 48 h amounted to 3090 µM. Besides, in data set [4] (C6G-EP2 cells, PGE2 as agonist), the Kb turned out to be 16.5 nM. Further, the “Therapeutic index (in vitro)” value in data set [5] is listed as 187,000.

As to `Cc1cc2ccccc2n1CCNC(=O)C=Cc1ccc2c(c1)OCO2` [1o, 3-(benzo[d][1,3]dioxol-5-yl)-N-(2-(2-methyl-1H-indol-1-yl)ethyl)acrylamide], in data set [1], the “Selective index, KB EP4/KB EP2” value is given as 629 and the Kb is 11.4 µM. The same compound came in with a CC50 at 48 h in data set [3] of 146 µM. Further, the Kb in data set [4] (C6G-EP2 cells, PGE2 as agonist) worked out at 18.1 nM. The “Therapeutic index (in vitro)” value in data set [5] was 8,070.

`COc1cc(C=CC(=O)NCCn2cnc3ccccc32)cc(OC)c1OC` [1d, N-(2-(1H-benzo[d]imidazol-1-yl)ethyl)-3-(3,4,5-trimethoxyphenyl)acrylamide]: the “Selective index, KB EP4/KB EP2” value in data set [1] stood at 6. The Kb in data set [1] was determined as 13.9 µM; in data set [4] (C6G-EP2 cells, PGE2 as agonist), 2520 nM. In addition, the CC50 at 48 h in data set [3] came to 311 µM. The “Therapeutic index (in vitro)” value in data set [5] is reported as 123.

With `COc1ccc(C=CC(=O)NCCn2c(C)nc3ccccc32)cc1OC` [1b, 3-(3,4-dimethoxyphenyl)-N-(2-(2-methyl-1H-benzo[d]imidazol-1-yl)ethyl)acrylamide], the “Selective index, KB EP4/KB EP2” value in data set [1] was 14. For the same compound, the Kb came to 13.3 µM in data set [1] and 947 nM in data set [4] (C6G-EP2 cells, PGE2 as agonist). The CC50 at 48 h in data set [3] came out at 448 µM. Besides, the “Therapeutic index (in vitro)” value in data set [5] was determined as 473.

As to `CCOc1ccc(C=CC(=O)NCCn2c(C)cc3ccccc32)cc1OC` [1p, 3-(4-ethoxy-3-methoxyphenyl)-N-(2-(2-methyl-1H-indol-1-yl)ethyl)acrylamide], in data set [1], the “Selective index, KB EP4/KB EP2” value is given as 268 and the Kb was found to be 1.9 µM. Also, the CC50 at 48 h in data set [3] worked out at 517 µM. Further, the Kb in data set [4] (C6G-EP2 cells, PGE2 as agonist) turned out to be 7.2 nM. Also, the “Therapeutic index (in vitro)” value in data set [5] is 71,800.

As to `COc1cc(C=CC(=O)NCCn2c(C)nc3ccccc32)cc(OC)c1OC` [1a, N-(2-(2-methyl-1H-benzo[d]imidazol-1-yl)ethyl)-3-(3,4,5-trimethoxyphenyl)acrylamide], in data set [1], the “Selective index, KB EP4/KB EP2” value came to 39 and the Kb is 13.7 µM. The compound further showed a CC50 at 48 h in data set [3] of 360 µM. The Kb in data set [4] (C6G-EP2 cells, PGE2 as agonist) worked out at 348 nM. Moreover, the “Therapeutic index (in vitro)” value in data set [5] is 1,030.

Turning to `Cc1cc2cc(F)ccc2n1CCNC(=O)C=Cc1cc(F)c(F)c(F)c1` [1u, N-(2-(5-fluoro-2-methyl-1H-indol-1-yl)ethyl)-3-(3,4,5-trifluorophenyl)acrylamide], in data set [1], the “Selective index, KB EP4/KB EP2” value turned out to be 715 and the Kb was determined as 19.9 µM. In data set [3], this compound had a CC50 at 48 h of 62 µM. Besides, the Kb in data set [4] (C6G-EP2 cells, PGE2 as agonist) was determined as 27.8 nM. Besides, in data set [5], the “Therapeutic index (in vitro)” value is reported as 2,230.

On to `COc1ccc(C=CC(=O)NCCn2c(C)cc3ccccc32)cc1OC` [A2, 3-(3,4-dimethoxyphenyl)-N-(2-(2-methyl-1H-indol-1-yl)ethyl)acrylamide], for which, in data set [1], the “Selective index, KB EP4/KB EP2” value is given as 435 and the Kb turned out to be 2 µM. Further, in data set [2], the activity at 10 µM was determined as 77.8%. In data set [3], this compound showed a CC50 at 48 h of 397 µM. This compound displayed a Schild plot slope in data set [4] (C6G-EP2 cells, PGE2) of 1.1. For the same compound, the Kb in data set [4] (C6G-EP2 cells, PGE2 as agonist) turned out to be 4.6 nM. In addition, the “Modality of antagonism on EP2 receptor” value in data set [4] (Schild plots) is “competitive antagonism”. Moreover, the “Therapeutic index (in vitro)” value in data set [5] is given as 86,300.

For `COc1ccc(/C=C/C(=O)NCCn2c(C)cc3ccccc32)cc1Cl` [1w], in data set [1], the “Selective index, KB EP4/KB EP2” value is listed as 2,470 and the Kb was found to be 4.7 µM. Also, the activity at 10 µM in data set [2] was found to be 78.4%. In addition, the CC50 at 48 h in data set [3] is 481 µM. Further, in data set [4] (C6G-EP2 cells, PGE2 as agonist), the Kb was found to be 1.9 nM. Besides, the “Therapeutic index (in vitro)” value in data set [5] is on record as 253,000.

Consider `COc1ccc(C=CC(=O)NCCn2c(C)cc3cc(F)ccc32)cc1OC` [1g, 3-(3,4-dimethoxyphenyl)-N-(2-(5-fluoro-2-methyl-1H-indol-1-yl)ethyl)acrylamide], for which, in data set [1], the “Selective index, KB EP4/KB EP2” value worked out at 77 and the Kb stood at 1.7 µM. In data set [3], this compound gave a CC50 at 48 h of 264 µM. In addition, the Kb in data set [4] (C6G-EP2 cells, PGE2 as agonist) is 22.2 nM. Further, in data set [5], the “Therapeutic index (in vitro)” value was 11,900.

`COc1ccc(/C=C/C(=O)NCCn2c(C)cc3cc(F)ccc32)cc1Cl` [1x]: in data set [1], the “Selective index, KB EP4/KB EP2” value amounted to 525 and the Kb amounted to 3.3 µM. This compound also had a CC50 at 48 h in data set [3] of 601 µM. Moreover, the Kb in data set [4] (C6G-EP2 cells, PGE2 as agonist) worked out at 6.3 nM. Moreover, the “Therapeutic index (in vitro)” value in data set [5] is given as 95,400.

As for `COc1cc(/C=C/C(=O)NCCN2CCCCC2C)cc(OC)c1OC` (stereo not drawn) [1e], the Kb in data set [1] turned out to be 18.9 µM. For the same compound, in data set [2], the “NMDA-induced LDH release, % of control” value was “did not show any effect and not”. Also, in data set [4] (C6G-EP2 cells, PGE2 as agonist), the “KB (nM) EP2, from Schild regression analysis” value is “Inactive”. In addition, the CC50 in data set [5] (read-out: CC50, half maximal cytotoxic concentration, C6G cells after 48 h incubation) stood at 316 µM.

For the compound `Cc1cc2ccccc2n1CCNC(=O)C=Cc1ccc(CC(C)C)cc1` [1q, 3-(4-isobutylphenyl)-N-(2-(2-methyl-1H-indol-1-yl)ethyl)acrylamide], in data set [1], the “Selective index, KB EP4/KB EP2” value was 367 and the Kb was 30.2 µM. The compound also showed a CC50 at 48 h in data set [3] of 199 µM. The Kb in data set [4] (C6G-EP2 cells, PGE2 as agonist) is 82.4 nM. In addition, the “Therapeutic index (in vitro)” value in data set [5] was 2,420.

With `COc1ccc(C=CC(=O)NCCn2c(C)cc3cc(F)ccc32)cc1` [1n, N-(2-(5-fluoro-2-methyl-1H-indol-1-yl)ethyl)-3-(4-methoxyphenyl)acrylamide], in data set [1], the “Selective index, KB EP4/KB EP2” value is 277 and the Kb came to 11.7 µM. Further, the CC50 at 48 h in data set [3] was determined as 653 µM. The Kb in data set [4] (C6G-EP2 cells, PGE2 as agonist) was 42.4 nM. Also, in data set [5], the “Therapeutic index (in vitro)” value is 15,400.

For `Cc1cc2ccccc2n1CCNC(=O)C=Cc1cc(F)c(F)c(F)c1` [1t, N-(2-(2-methyl-1H-indol-1-yl)ethyl)-3-(3,4,5-trifluorophenyl)acrylamide], in data set [1], the “Selective index, KB EP4/KB EP2” value turned out to be 921 and the Kb is 17.2 µM. The compound further yielded a CC50 at 48 h in data set [3] of 46 µM. Further, the Kb in data set [4] (C6G-EP2 cells, PGE2 as agonist) was found to be 18.7 nM. Further, the “Therapeutic index (in vitro)” value in data set [5] is recorded as 2,460.

Turning to `Cc1cc2cc(F)ccc2n1CCNC(=O)C=Cc1ccc(F)c(F)c1` [1s, 3-(3,4-difluorophenyl)-N-(2-(5-fluoro-2-methyl-1H-indol-1-yl)ethyl)acrylamide], in data set [1], the “Selective index, KB EP4/KB EP2” value is 1,990 and the Kb was determined as 13.9 µM. The compound also gave a CC50 at 48 h in data set [3] of 684 µM. Also, in data set [4] (C6G-EP2 cells, PGE2 as agonist), the Kb stood at 7 nM. For the same compound, in data set [5], the “Therapeutic index (in vitro)” value is listed as 97,700.

On to `COc1cc(C=CC(=O)NCCCn2c(C)cc3ccccc32)cc(OC)c1OC` [1j, N-(3-(2-methyl-1H-indol-1-yl)propyl)-3-(3,4,5-trimethoxyphenyl)acrylamide], for which, in data set [1], the “Selective index, KB EP4/KB EP2” value is reported as 3 and the Kb was 5.7 µM. Also, the CC50 at 48 h in data set [3] stood at 182 µM. Also, the Kb in data set [4] (C6G-EP2 cells, PGE2 as agonist) stood at 1860 nM. For the same compound, in data set [5], the “Therapeutic index (in vitro)” value came to 98.

On to `COc1cc(C=CC(=O)N(C)CCn2c(C)cc3ccccc32)cc(OC)c1OC` [1k, N-methyl-N-(2-(2-methyl-1H-indol-1-yl)ethyl)-3-(3,4,5-trimethoxyphenyl)acrylamide], for which, in data set [1], the “Selective index, KB EP4/KB EP2” value is reported as 90 and the Kb is 16.6 µM. Also, in data set [3], the CC50 at 48 h stood at 278 µM. Moreover, the Kb in data set [4] (C6G-EP2 cells, PGE2 as agonist) came to 185 nM. For the same compound, the “Therapeutic index (in vitro)” value in data set [5] is reported as 1,500.
